1 compound from patent publication US6861233B1, “Method of screening for triacyglycerol hydrolase inhibitors” (Glaxo Group Limited, priority 1999, dated 2005) can be followed below.

One test concerns the target T1, human liver TGH (Homo sapiens, UniProt P23141).
T1 construct: the enzyme from microsomal membranes of liver tissues was solubilised by the zwitterionic detergent; from tissue; host or cells: human liver (microsomal membranes)
T1 sequence (P23141 21-567 limits assumed): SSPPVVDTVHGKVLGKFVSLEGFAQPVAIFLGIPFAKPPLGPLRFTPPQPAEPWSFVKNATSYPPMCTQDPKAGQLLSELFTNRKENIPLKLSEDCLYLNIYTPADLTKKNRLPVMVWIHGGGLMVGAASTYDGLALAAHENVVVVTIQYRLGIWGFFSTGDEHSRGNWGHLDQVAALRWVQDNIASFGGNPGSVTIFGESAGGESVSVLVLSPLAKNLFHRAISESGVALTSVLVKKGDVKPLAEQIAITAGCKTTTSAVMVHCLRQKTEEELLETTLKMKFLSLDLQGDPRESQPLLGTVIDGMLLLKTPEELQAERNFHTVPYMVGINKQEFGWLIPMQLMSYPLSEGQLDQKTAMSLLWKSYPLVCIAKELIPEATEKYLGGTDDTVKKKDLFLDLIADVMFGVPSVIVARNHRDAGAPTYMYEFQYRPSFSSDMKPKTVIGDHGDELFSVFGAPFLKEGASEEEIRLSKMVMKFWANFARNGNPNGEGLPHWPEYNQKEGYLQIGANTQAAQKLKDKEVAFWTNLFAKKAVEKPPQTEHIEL
Briefly: Effect of test agents on human liver TGH (4-methylumbelliferyl butyrate fluorogenic substrate). As to conditions: purified human liver TGH 1.16 nM, 15-min pre-incubation, 4-MU-butyrate substrate; read-out: concentration which resulted in 50% inhibition of TGH. It counts as biochemical. Here is the method:
Human liver TGH was purified according to Lehner and Verger's protocol described for the porcine liver TGH [13). Briefly, the enzyme from microsomal membranes of liver tissues was solubilised by the zwitterionic detergent 3-[(3 cholamidopropyl)dimethylammonio]-1-propanesulfonate (CHAPS) and was purified to apparent homogeneity by sequential chromatography on Q-sepharose and hydroxyapatite.
The enzymatic activity of TGH was evaluated with the fluorogenic substrate 4-methylumbelliferyl butyrate (4-MU-butyrate). Briefly, 10 μl of a solution of 25 mM of 4-MU-butyrate in tetrahydrofuran was injected in 2 ml of a buffer containing Tris (20 mM), pH 8.0, EDTA (1 mM) and taurodeoxycholate (300 μM). TGH activity was assayed at 1.16 nM in a final volume of 100 μl. The compound was dissolved in DMSO to be tested at various concentrations (from 1 nM to 2 μM) and was incubated with the enzyme 15-min prior to the addition of 20 μl of the substrate, which gives the starting point of the enzymatic reaction. […]
The basal level of fluorescence of the substrate was evaluated in a reaction mixture of 70 μl of buffer, 10 μl of DMSO (at the appropriate dilution) and 20 μl of substrate, and was subtracted from each other data. Rates of lipolysis were determined from continuous increase in fluorescence intensity at 460 nm (Excitation: 355 nm).

Test [1] concerns the target T2, lipoprotein lipase (LPL) from bovine milk (Bos taurus, UniProt P11151).
T2 construct: lipoprotein lipase (LPL) from bovine milk; from tissue; host or cells: bovine milk
T2 sequence (P11151 29-478): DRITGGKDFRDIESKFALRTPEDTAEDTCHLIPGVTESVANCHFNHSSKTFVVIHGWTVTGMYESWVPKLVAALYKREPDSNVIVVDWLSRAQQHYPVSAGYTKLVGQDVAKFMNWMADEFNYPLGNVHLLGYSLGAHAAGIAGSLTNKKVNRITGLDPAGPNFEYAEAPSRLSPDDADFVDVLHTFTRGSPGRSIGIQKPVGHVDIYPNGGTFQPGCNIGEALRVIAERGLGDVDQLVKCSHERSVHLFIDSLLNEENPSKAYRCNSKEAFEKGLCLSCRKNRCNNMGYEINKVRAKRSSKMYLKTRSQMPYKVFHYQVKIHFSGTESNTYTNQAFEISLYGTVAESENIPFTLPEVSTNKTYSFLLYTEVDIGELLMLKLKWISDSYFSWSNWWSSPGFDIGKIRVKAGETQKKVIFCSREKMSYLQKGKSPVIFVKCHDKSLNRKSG
Description: Effect of TGH inhibitors on lipoprotein lipase activity (radiolabelled trioleoylglycerol hydrolysis). Format: biochemical. As to conditions: tested at 5 μM, incubated with the enzyme 15-min prior to substrate. Here is the method: In order to evaluate the specificity of TGH inhibitors toward TGH, test compound was tested on the enzymatic activity of lipoprotein lipase (LPL) from bovine milk. For this purpose radiolabelled trioleoylglycerol (250 μM, specific activity 1 mCi/mmole) was emulsified in mixture of 10% gum arabic by sonication. Long-chain triacylglycerol hydrolysis was assayed in a final volume of 200 μl containing LPL (1.5 μg/ml), Tris (50 mM), pH 8.0; MgCl2 CaCl2 (1 mM), and 150 mM NaCl with 1 mg/ml BSA as a fatty acid acceptor for 30 min at 37° C. The reaction was terminated with the addition of 3.25 ml of methanol/chloroform/heptane (3.85:3.42:2.73 by volume); 0.3 ml of 150 mM NaCl, lipid carriers (100 μg of unlabelled oleic acid), and 50 μl of 1 N NaOH. The mixture was vortexed and centrifuged. One ml of the upper phase (containing the fatty acids that have been hydrolyzed) was mixed with 10 ml of Cytoscint and counted. Test compound is incubated with the enzyme 15 minutes prior to the addition of the substrate.

Another test concerns normal fed hamsters. Briefly: Hypolipidemic activity of the TGH inhibitor in hamster. Format: in vivo. As to conditions: oral, 25 mg/kg twice a day for 3 days. The method, then:
Ten normal fed hamsters were randomly allocated into 2 groups. Animals from one group were orally gavaged with a test TGH inhibitor in DMSOI Labrafil (10/90%), 25 mg/kg, twice a day for 3 days while the animals from the other group were gavaged with the solvent (DMSOI/abrafil) twice a day for 3 days. The animals were sacrificed 4 hours following the last administration and the plasma lipids and lipoproteins were analyzed.
Total cholesterol (TC) and triglyceride (TG) levels in plasma were determined enzymatically with reagents from Bio Merieux. VLDL/LDL lipoprotein fractions were separated from the HDL lipoproteins by gradient centrifugation (d=1.063). Cholesterol in the VLDL/LDL as well as in the HDL fraction was also determined using the Bio Merieux kit. Apolipoprotein B-100 (Apo-B100) in the VLDL/LDL fraction was visualized by using SDS-PAGE under reducing conditions using resolving gels containing a 5% to 12% gradient.

The mark [2] stands for this setting: 4 hours after last administration.

Consider `Cc1cccc(NN=C(C(=O)c2cccs2)C(=O)C(F)(F)F)c1` [4,4,4-trifluoro-2-[2-(3-methylphenyl)hydrazono]-1-(2-thienyl)butane-1,3-dione], for which, on human liver TGH, the IC50 was 4 nM. Also, in test [1], the “effect on the enzymatic activity of LPL” value was “did not affect”. Also, in the test with normal fed hamsters (setting [2]), the HDL cholesterol level result was “not significantly affected”, the “reduction in VLDL/LDL cholesterol (from the solvent treated animals)” value was 40% and the “reduction in the plasma TG concentration (from the solvent treated animals)” value was −55%. Moreover, in the test with normal fed hamsters (VLDL/LDL fraction, SDS-PAGE), the “ApoB100 decrease compared to control animals” value is −39%.
